Results from ChEMBL document CHEMBL2157944, “Evaluation of structure-derived pharmacophore of soluble epoxide hydrolase inhibitors by virtual screening” (Bioorg Med Chem Lett, 2012).
Blank lines part the entries; values can stand above or below the molecule they belong to.

Experiments:
[1] = target: T1, Bifunctional epoxide hydrolase 2 (Homo sapiens, UniProt P34913); test: Inhibition of sEH using (3-Phenyl-oxiranyl)-acetic acid cyano-(6-methoxy-naphthalen-2-yl)-methyl ester) as substrate incubated for 15 mins prior to substrate addition measured every min for 15 mins by fluorimetric analysis
T1 sequence (P34913 whole entry): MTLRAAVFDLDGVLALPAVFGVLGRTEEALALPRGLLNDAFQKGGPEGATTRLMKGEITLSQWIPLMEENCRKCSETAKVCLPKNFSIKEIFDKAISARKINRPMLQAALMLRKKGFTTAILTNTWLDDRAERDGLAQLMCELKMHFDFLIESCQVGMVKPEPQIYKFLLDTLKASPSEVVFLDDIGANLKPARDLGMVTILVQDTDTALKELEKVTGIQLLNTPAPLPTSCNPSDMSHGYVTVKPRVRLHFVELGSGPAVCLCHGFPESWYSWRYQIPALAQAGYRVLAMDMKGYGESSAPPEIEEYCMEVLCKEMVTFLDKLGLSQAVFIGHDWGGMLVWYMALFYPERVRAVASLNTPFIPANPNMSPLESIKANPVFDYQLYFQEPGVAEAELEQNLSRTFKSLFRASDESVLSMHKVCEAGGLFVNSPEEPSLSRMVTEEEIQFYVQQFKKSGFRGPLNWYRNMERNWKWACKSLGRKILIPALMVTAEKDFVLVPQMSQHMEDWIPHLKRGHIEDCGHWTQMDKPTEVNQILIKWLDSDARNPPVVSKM

[2] = Solubility of the compound at >100 uM; assay type: physicochemical
[3] = Solubility of the compound; assay type: physicochemical

SMILES: Cc1cc(-c2cnc(NCCCc3ccccn3)nc2C(C)C)on1
solubility [2]: Insoluble

SMILES: NS(=O)(=O)c1ccc(CNc2ncc(-c3ccncc3)c(C3CC3)n2)cc1
solubility [3]: Insoluble

SMILES: O=C(NCCCNc1ncc(-c2ccncc2)c(C2CC2)n1)c1ccccn1
IC50 [1]: 25 µM

Now from value to molecule:

IC50 [1]: 3.2 µM
SMILES: O=C(Nc1cccc(Cl)c1)OCCCNS(=O)(=O)c1cccc([N+](=O)[O-])c1

IC50 [1]: 5.5 µM
SMILES: O=C(Nc1cccc(O)c1)OCC1c2ccccc2-c2ccccc21
